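Each compound was tested at five concentrations against cells in 96-well plates for 48 hours. At the GI50, growth is halved.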 Activity calls are given as the source filed them. Rule as the data show it: active = GI50 up to about 1.1 µM and inactive = higher.
Key:
Experiment in all cases: inhibition of tumour cell growth, NCI panel, 48 h
U-251 = test system: U-251
MDA-N = test system: MDA-N
SR = test system: SR
EKVX = test system: EKVX
HCT-15 = test system: HCT-15
DU-145 = test system: DU-145
OVCAR-5 = test system: OVCAR-5
NCI-H23 = test system: NCI-H23
SK-MEL-28 = test system: SK-MEL-28
SW-620 = test system: SW-620
HCT-116 = test system: HCT-116
CAKI-1 = test system: CAKI-1
HOP-62 = test system: HOP-62
UACC-257 = test system: UACC-257
A498 = test system: A498
HT-29 = test system: HT-29
NCI/ADR-RES = test system: NCI/ADR-RES
OVCAR-8 = test system: OVCAR-8

CC(O[Si](c1ccccc1)(c1ccccc1)C(C)(C)C)[C@H](NC(=O)OC(C)(C)C)C(=O)O (stereo partly specified)
GI50 (U-251): 33.1 µM (inactive) | GI50 (MDA-N): 38.7 µM (inactive) | GI50 (SR): 28.2 µM (inactive) | GI50 (EKVX): 33.5 µM (inactive) | GI50 (HCT-15): 29 µM | GI50 (DU-145): > 10 µM (inactive) | GI50 (OVCAR-5): 75.3 µM (inactive) | GI50 (NCI-H23): 33 µM (inactive) | GI50 (SK-MEL-28): 50 µM (inactive) | GI50 (SW-620): 29.4 µM (inactive) | GI50 (HCT-116): 34.2 µM (inactive) | GI50 (CAKI-1): 40.3 µM (inactive) | GI50 (HOP-62): 49.8 µM (inactive) | GI50 (UACC-257): 36.1 µM (inactive) | GI50 (A498): 82.6 µM (inactive) | GI50 (HT-29): 32.2 µM (inactive) | GI50 (NCI/ADR-RES): 46.7 µM (inactive) | GI50 (OVCAR-8): 42 µM (inactive)

O=C(NC(C(F)(F)F)(C(F)(F)F)P(=O)(Cc1ccccc1)Cc1ccccc1)C(C(F)(F)F)C(F)(F)F
GI50 (U-251): 17.6 µM (inactive) | GI50 (MDA-N): 19.5 µM (inactive) | GI50 (SR): 18.7 µM (inactive) | GI50 (EKVX): 26.4 µM (inactive) | GI50 (HCT-15): 29.4 µM | GI50 (DU-145): 37.8 µM (inactive) | GI50 (OVCAR-5): 22.3 µM (inactive) | GI50 (NCI-H23): 19.7 µM (inactive) | GI50 (SK-MEL-28): 25.6 µM (inactive) | GI50 (SW-620): 44.4 µM (inactive) | GI50 (HCT-116): 17.3 µM (inactive) | GI50 (CAKI-1): 52.4 µM (inactive) | GI50 (HOP-62): 20.6 µM (inactive) | GI50 (UACC-257): 22.6 µM (inactive) | GI50 (A498): 17.3 µM (inactive) | GI50 (HT-29): 19.8 µM (inactive) | GI50 (NCI/ADR-RES): 17.9 µM (inactive) | GI50 (OVCAR-8): 22.3 µM (inactive)

CC(=O)OCC1OC(n2c3c(cc(C#N)c2=S)CCCCC3)C(OC(C)=O)C(OC(C)=O)C1OC(C)=O (stereo unspecified)
GI50 (U-251): > 100 µM (inactive) | GI50 (MDA-N): > 100 µM (inactive) | GI50 (SR): > 100 µM (inactive) | GI50 (HCT-15): > 100 µM | GI50 (DU-145): > 100 µM (inactive) | GI50 (OVCAR-5): > 100 µM (inactive) | GI50 (NCI-H23): > 100 µM (inactive) | GI50 (SK-MEL-28): > 100 µM (inactive) | GI50 (HCT-116): > 100 µM (inactive) | GI50 (CAKI-1): > 100 µM (inactive) | GI50 (HOP-62): > 100 µM (inactive) | GI50 (UACC-257): > 100 µM (inactive) | GI50 (A498): > 100 µM (inactive) | GI50 (HT-29): > 100 µM (inactive) | GI50 (NCI/ADR-RES): > 100 µM (inactive) | GI50 (OVCAR-8): > 100 µM (inactive)

CC(C)c1ccc2c(c1)[C@@]1(C)CC[C@H](C)C(C)(C)C1CC2 (stereo partly specified)
GI50 (MDA-N): 26.1 µM (inactive) | GI50 (SR): 27.5 µM (inactive) | GI50 (EKVX): 18.9 µM (inactive) | GI50 (HCT-15): 18.1 µM | GI50 (DU-145): 25.7 µM (inactive) | GI50 (OVCAR-5): 24.4 µM (inactive) | GI50 (NCI-H23): 18.8 µM (inactive) | GI50 (SK-MEL-28): 17 µM (inactive) | GI50 (SW-620): 47.8 µM (inactive) | GI50 (HCT-116): 18.4 µM (inactive) | GI50 (CAKI-1): 23.9 µM (inactive) | GI50 (HOP-62): 18.8 µM (inactive) | GI50 (UACC-257): 19.5 µM (inactive) | GI50 (A498): 17.7 µM (inactive) | GI50 (HT-29): 16.3 µM (inactive) | GI50 (NCI/ADR-RES): 18.2 µM (inactive) | GI50 (OVCAR-8): 18.6 µM (inactive)

COc1ccc(/C=N/NC(=O)O)cc1
GI50 (U-251): > 100 µM (inactive) | GI50 (MDA-N): > 100 µM (inactive) | GI50 (SR): > 100 µM (inactive) | GI50 (EKVX): > 100 µM (inactive) | GI50 (HCT-15): > 100 µM | GI50 (DU-145): > 100 µM (inactive) | GI50 (OVCAR-5): > 100 µM (inactive) | GI50 (NCI-H23): > 100 µM (inactive) | GI50 (SK-MEL-28): > 100 µM (inactive) | GI50 (SW-620): > 100 µM (inactive) | GI50 (HCT-116): > 100 µM (inactive) | GI50 (CAKI-1): > 100 µM (inactive) | GI50 (HOP-62): > 100 µM (inactive) | GI50 (UACC-257): > 100 µM (inactive) | GI50 (A498): > 100 µM (inactive) | GI50 (HT-29): > 100 µM (inactive) | GI50 (NCI/ADR-RES): > 100 µM (inactive)

NC1CC(=O)c2c(Br)csc21 (stereo unspecified)
GI50 (U-251): 10 µM (inactive) | GI50 (MDA-N): 12.5 µM (inactive) | GI50 (SR): 46.6 µM (inactive) | GI50 (EKVX): 67.6 µM (inactive) | GI50 (HCT-15): 35.4 µM | GI50 (DU-145): > 100 µM (inactive) | GI50 (OVCAR-5): 63.7 µM (inactive) | GI50 (SK-MEL-28): 25.9 µM (inactive) | GI50 (SW-620): 30.2 µM (inactive) | GI50 (HCT-116): 46.8 µM (inactive) | GI50 (CAKI-1): 55 µM (inactive) | GI50 (HOP-62): 49.8 µM (inactive) | GI50 (UACC-257): 40.2 µM (inactive) | GI50 (A498): 78 µM (inactive) | GI50 (HT-29): 40.6 µM (inactive) | GI50 (NCI/ADR-RES): > 100 µM (inactive) | GI50 (OVCAR-8): 42.9 µM (inactive)

COc1cc2c(c(N)c1OC)C(=O)/C(=C/c1cc(C)c(O)c(C)c1)C2
GI50 (U-251): < 0.0164 µM (active) | GI50 (MDA-N): < 0.01 µM (active) | GI50 (SR): < 0.01 µM (active) | GI50 (EKVX): < 0.01 µM (active) | GI50 (HCT-15): < 0.01 µM | GI50 (DU-145): < 0.01 µM (active) | GI50 (OVCAR-5): 0.693 µM (active) | GI50 (NCI-H23): < 0.01 µM (active) | GI50 (SW-620): < 0.01 µM (active) | GI50 (HCT-116): < 0.01 µM (active) | GI50 (CAKI-1): 4.25 µM (inactive) | GI50 (HOP-62): < 0.0176 µM (active) | GI50 (UACC-257): > 100 µM (inactive) | GI50 (A498): 7.13 µM (inactive) | GI50 (HT-29): 2.64 µM (inactive) | GI50 (NCI/ADR-RES): 0.0104 µM (active) | GI50 (OVCAR-8): < 0.01 µM (active)

Cc1ccc(-c2c(C#N)c(S)n(NS(=O)(=O)c3ccc(C)cc3)c(=O)c2C#N)cc1
GI50 (U-251): 18.1 µM (inactive) | GI50 (MDA-N): 35.6 µM (inactive) | GI50 (SR): 29.6 µM (inactive) | GI50 (EKVX): 23.6 µM (inactive) | GI50 (HCT-15): 20.2 µM | GI50 (DU-145): 41.8 µM (inactive) | GI50 (OVCAR-5): 27.4 µM (inactive) | GI50 (NCI-H23): 18.5 µM (inactive) | GI50 (SK-MEL-28): 22 µM (inactive) | GI50 (SW-620): 19.9 µM (inactive) | GI50 (HCT-116): 27 µM (inactive) | GI50 (CAKI-1): 28 µM (inactive) | GI50 (UACC-257): 40 µM (inactive) | GI50 (A498): 33.7 µM (inactive) | GI50 (NCI/ADR-RES): 32.8 µM (inactive) | GI50 (OVCAR-8): 21 µM (inactive)

— ChEMBL document CHEMBL1201862, “PubChem BioAssay data set” (2004)
